From PubChem BioAssay (NCI) come the findings set out here.

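Values below derive from 48-hour exposures of cells grown in 96-well plates, with endpoints linearly interpolated between the two concentrations bracketing the appropriate inhibition level. GI50 marks 50% less growth. TGI: total growth inhibition.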 Some results are limits rather than exact numbers.

Common to all, as to assay: NCI-60 cell line screen, 48 h
The subject of assay [1] is 786-0 renal.
For assay [2], the system named is COLO 205 colon.
Assay [3] concerns K-562 leukemia.
Assay [4] relates to MALME-3M melanoma.
Assay [5] deals with MDA-MB-231 breast.
The test system of assay [6] is OVCAR-3 ovarian.
In assay [7] the test system is RPMI-8226 leukemia.
For assay [8], the system named is SF-268 CNS.
The test system of assay [9] is SK-MEL-2 melanoma.
The test system of assay [10] is SNB-75 CNS.

Consider `COc1cc2c3c(n(C)c(=O)c2cc1OC)-c1cc2c(cc1/C3=C/[C@H](N)CCCCN)OCO2`, for which the GI50 is 1.68 µM in [1]; 1.18 µM in [2]; 4.68 µM in [3]; 0.0491 µM in assay [4]; 0.941 µM in [5]; 1.45 µM in assay [6]. Moreover, the GI50 in assay [7] is 1.59 µM; in assay [8], 0.315 µM; in assay [9], 2.68 µM; in assay [10], 3.74 µM. Also, the TGI was 18 µM in [1]; greater than 19.8 µM in assay [2]; greater than 100 µM in [3]; 0.7 µM in [4]; 6.22 µM in [5]; 9.89 µM in [6]. The TGI is greater than 61.5 µM in assay [7], 3.97 µM in assay [8], 8.98 µM in [9] and 27.7 µM in [10].

As for `Cc1cc(C)c2c(N)c3cccc(C)c3nc2n1`, the GI50 is 2.35 µM in assay [1]; 0.702 µM in [2]; 2.36 µM in [3]; 1.93 µM in [4]; 1.56 µM in [5]; 2.57 µM in assay [6]. For the same molecule, the GI50 was 2.14 µM in assay [7], 2.15 µM in assay [8], 2.03 µM in assay [9] and 1.83 µM in assay [10]. In addition, the TGI in assay [1] is 8.47 µM; in assay [2] it was 2.17 µM; in [3], 8.71 µM; in assay [4], 4.38 µM; in assay [5] it was 6.27 µM; in [6] it was 5.46 µM. Also, the TGI in [7] turned out to be 6.78 µM; in assay [8], 6.3 µM; in [9], 4.97 µM; in [10], 6.63 µM.

For the molecule `CN(C)CCNC(=O)c1nc([N+](=O)[O-])cn1C`, the TGI in [1], in [2], in [3], in assay [4], in assay [5] and in [6] was greater than 100 µM in each case. The TGI in assay [7], in assay [8], in [9] and in assay [10] was greater than 100 µM in each case.
